{"source": "patent US20220218852A1", "about": "“NOVEL RADIOLABELLED CXCR4-TARGETING COMPOUNDS FOR DIAGNOSIS AND THERAPY” (PROVINCIAL HEALTH SERVICES AUTHORITY, priority 2019, published 2022)", "key": {"[1]": {"test_system": "Z138 mantle cell lymphoma xenografts", "experiment": "Biodistribution in Z138 tumor-bearing mice", "format": "in vivo", "description": "(§1) For Daudi, Z138, GRANTA519 and Jeko1 xenografts, male NOD.Cg-Rag1^tm1MomII2rg^tm1Wjl/SzJ (NRG) mice were subcutaneously inoculated on the left flank with 5×10^6 cells (100 μL; 1:1 ratio of PBS/Matrigel) and tumors were grown to a size of 200-500 mm^3. For PC-3 xenografts, male NOD.Cg-Rag1^tm1MomII2rg^tm1Wjl/SzJ (NRG) mice were subcutaneously inoculated on the left flank with 5×10^6 PC-3 cells (100 μL; 1:1 ratio of PBS/Matrigel) and tumors were grown to a size of 200-400 mm^3.\n(§2) The mice were euthanized via CO2 inhalation while anesthetized with isoflurane. Tissues were harvested, washed in PBS, blotted dry, weighed, and measured on a Hidex AMG Automatic Gamma Counter."}, "[2]": {"experiment": "Biodistribution in Z138 tumor-bearing mice", "format": "in vivo", "conditions": "male, NOD.Cg-Rag1^tm1MomII2rg^tm1Wjl/SzJ (NRG), mouse, iv, total radioactivity", "description": "as §1, §2"}, "[3]": {"conditions": "blood, read-out: Biodistribution Blood"}, "[4]": {"conditions": "bone, read-out: Biodistribution Bone"}, "[5]": {"conditions": "brain, read-out: Biodistribution Brain"}, "[6]": {"conditions": "fat, read-out: Biodistribution Fat"}, "[7]": {"conditions": "intestine, read-out: Biodistribution Intestine"}}, "note": "Where two headings read alike, the source gives them in different places. Positions of bridges follow the written chain, without caps; N, C: chain ends. Non-standard residues stand in square brackets, D forms with d. Residues, ends and D or L forms follow the SMILES beside them. Groups on a side chain read outwards from the residue. *: point of attachment. DOTA = O=C(O)CN1CCN(CC(=O)O)CCN(CC(=O)*)CCN(CC(=O)O)CC1; 2Nal = N[C@@H](Cc1ccc2ccccc2c1)C(=O)O; Lys(iPr) = CC(C)NCCCC[C@H](N)C(=O)O", "data": [{"smiles": "CC(C)NCCCC[C@@H]1NC(=O)[C@H](Cc2ccc(O)cc2)NC(=O)[C@H](Cc2ccccc2)NC(=O)CC[C@H](C(=O)N[C@@H](CCCCNC(C)C)C(=O)N[C@@H](CCCCNC(=O)[C@H](CCC(=O)O)NC(=O)[C@H](CCC(=O)O)NC(=O)[C@H](CCC(=O)O)NC(=O)CN2CCN(CC(=O)O)CCN(CC(=O)O)CCN(CC(=O)O)CC2)C(N)=O)NC(=O)CNC(=O)[C@H](Cc2ccc3ccccc3c2)NC(=O)[C@@H](CCCNC(=N)N)NC1=O", "note": "[[^177Lu]Lu-BL02, metal not drawn] (FY[Lys(iPr)][dR][2Nal]G[dE][Lys(iPr)]K([Glu-Glu-Glu-DOTA])-NH2; lactam N-7)", "values": [{"measurement": "Ratio Tumour:Blood", "setting": "[1]; 1 h", "value": 38.98}, {"measurement": "Ratio Tumour:Bone", "setting": "[1]; 1 h", "value": 74.82}, {"measurement": "Ratio Tumour:Liver", "setting": "[1]; 1 h", "value": 18.53}, {"measurement": "Ratio Tumour:Lung", "setting": "[1]; 1 h", "value": 21.08}, {"measurement": "Ratio Tumour:Muscle", "setting": "[1]; 1 h", "value": 166.59}, {"measurement": "Ratio Tumour:Spleen", "setting": "[1]; 1 h", "value": 33.05}, {"measurement": "Ratio Tumour:Blood", "setting": "[1]; 1 h blocked", "value": 2.74}, {"measurement": "Ratio Tumour:Bone", "setting": "[1]; 1 h blocked", "value": 9.53}, {"measurement": "Ratio Tumour:Liver", "setting": "[1]; 1 h blocked", "value": 3.84}, {"measurement": "Ratio Tumour:Lung", "setting": "[1]; 1 h blocked", "value": 2.75}, {"measurement": "Ratio Tumour:Muscle", "setting": "[1]; 1 h blocked", "value": 13.22}, {"measurement": "Ratio Tumour:Spleen", "setting": "[1]; 1 h blocked", "value": 6.87}, {"measurement": "Ratio Tumour:Blood", "setting": "[1]; 4 h", "value": 627.62}, {"measurement": "Ratio Tumour:Bone", "setting": "[1]; 4 h", "value": 145.11}, {"measurement": "Ratio Tumour:Liver", "setting": "[1]; 4 h", "value": 16.93}, {"measurement": "Ratio Tumour:Lung", "setting": "[1]; 4 h", "value": 60.62}, {"measurement": "Ratio Tumour:Muscle", "setting": "[1]; 4 h", "value": 503.09}, {"measurement": "Ratio Tumour:Spleen", "setting": "[1]; 4 h", "value": 49.43}, {"measurement": "Ratio Tumour:Blood", "setting": "[1]; 24 h", "value": 873.49}, {"measurement": "Ratio Tumour:Bone", "setting": "[1]; 24 h", "value": 109.48}, {"measurement": "Ratio Tumour:Liver", "setting": "[1]; 24 h", "value": 12.51}, {"measurement": "Ratio Tumour:Lung", "setting": "[1]; 24 h", "value": 52.72}, {"measurement": "Ratio Tumour:Muscle", "setting": "[1]; 24 h", "value": 463.22}, {"measurement": "Ratio Tumour:Spleen", "setting": "[1]; 24 h", "value": 31.90}, {"measurement": "Ratio Tumour:Blood", "setting": "[1]; 72 h", "value": 613.24}, {"measurement": "Ratio Tumour:Bone", "setting": "[1]; 72 h", "value": 68.39}, {"measurement": "Ratio Tumour:Liver", "setting": "[1]; 72 h", "value": 8.32}, {"measurement": "Ratio Tumour:Lung", "setting": "[1]; 72 h", "value": 21.59}, {"measurement": "Ratio Tumour:Muscle", "setting": "[1]; 72 h", "value": 358.55}, {"measurement": "Ratio Tumour:Spleen", "setting": "[1]; 72 h", "value": 13.86}, {"measurement": "tissue uptake at 1 h", "setting": "[2]; blood, 1 h, read-out: Biodistribution Blood", "value": 0.44, "unit": "%ID/g"}, {"measurement": "tissue uptake at 4 h", "setting": "[2]; [3]", "value": 0.03, "unit": "%ID/g"}, {"measurement": "tissue uptake at 24 h", "setting": "[2]; [3]", "value": 0.01, "unit": "%ID/g"}, {"measurement": "tissue uptake at 72 h", "setting": "[2]; [3]", "value": 0.007, "unit": "%ID/g"}, {"measurement": "tissue uptake at 1 h", "setting": "[2]; blood, with LY2510924 7.5 μg i.p. 15 min before radiotracer, 1 h blocked, read-out: Biodistribution Blood", "value": 2.06, "unit": "%ID/g"}, {"measurement": "tissue uptake at 1 h", "setting": "[2]; bone, 1 h, read-out: Biodistribution Bone", "value": 0.25, "unit": "%ID/g"}, {"measurement": "tissue uptake at 4 h", "setting": "[2]; [4]", "value": 0.11, "unit": "%ID/g"}, {"measurement": "tissue uptake at 24 h", "setting": "[2]; [4]", "value": 0.085, "unit": "%ID/g"}, {"measurement": "tissue uptake at 72 h", "setting": "[2]; [4]", "value": 0.053, "unit": "%ID/g"}, {"measurement": "tissue uptake at 1 h", "setting": "[2]; bone, 1 h blocked, read-out: Biodistribution Bone", "value": 0.49, "unit": "%ID/g"}, {"measurement": "tissue uptake at 1 h", "setting": "[2]; brain, 1 h, read-out: Biodistribution Brain", "value": 0.02, "unit": "%ID/g"}, {"measurement": "tissue uptake at 1 h", "setting": "[2]; brain, 1 h blocked, read-out: Biodistribution Brain", "value": 0.04, "unit": "%ID/g"}, {"measurement": "tissue uptake at 4 h", "setting": "[2]; [5]", "value": 0.01, "unit": "%ID/g"}, {"measurement": "tissue uptake at 24 h", "setting": "[2]; [5]", "value": 0.003, "unit": "%ID/g"}, {"measurement": "tissue uptake at 72 h", "setting": "[2]; [5]", "value": 0.001, "unit": "%ID/g"}, {"measurement": "tissue uptake at 1 h", "setting": "[2]; fat, 1 h, read-out: Biodistribution Fat", "value": 0.07, "unit": "%ID/g"}, {"measurement": "tissue uptake at 4 h", "setting": "[2]; [6]", "value": 0.03, "unit": "%ID/g"}, {"measurement": "tissue uptake at 24 h", "setting": "[2]; [6]", "value": 0.011, "unit": "%ID/g"}, {"measurement": "tissue uptake at 72 h", "setting": "[2]; [6]", "value": 0.008, "unit": "%ID/g"}, {"measurement": "tissue uptake at 1 h", "setting": "[2]; fat, with LY2510924 7.5 μg i.p. 15 min before radiotracer, 1 h blocked, read-out: Biodistribution Fat", "value": 0.19, "unit": "%ID/g"}, {"measurement": "tissue uptake at 1 h", "setting": "[2]; intestine, 1 h, read-out: Biodistribution Intestine", "value": 0.27, "unit": "%ID/g"}, {"measurement": "tissue uptake at 1 h", "setting": "[2]; intestine, 1 h blocked, read-out: Biodistribution Intestine", "value": 0.75, "unit": "%ID/g"}, {"measurement": "tissue uptake at 4 h", "setting": "[2]; [7]", "value": 0.09, "unit": "%ID/g"}, {"measurement": "tissue uptake at 24 h", "setting": "[2]; [7]", "value": 0.126, "unit": "%ID/g"}, {"measurement": "tissue uptake at 72 h", "setting": "[2]; [7]", "value": 0.023, "unit": "%ID/g"}]}]}
